This passage reports melting point results from a melting point compilation (Tetko et al.; mined from patent text by program, amines drawn as free bases though some values may be those of a salt).

`COC(=O)c1ccc2c(c1)CN(c1c(F)cc3c(=O)c(C(=O)O)cn4c3c1OCC4C)C2` (configuration not stated): the melting point – broadly, the temperature, or range, at which the solid turns liquid – lay in the range of 257 to 262 °C.

Regarding `Cc1c(C)n(Cc2ccccc2)c(=O)[nH]c1=O`, the melting point was in the range of 187 to 189 °C.

The compound `CC(C)(C)c1ccc2c(c1)C(C(=O)O)c1ccccc1CO2` (configuration not stated) had a melting point of 197 to 198 °C.

The compound `O=C(O)c1c[nH]c(=S)n1C1CCc2c(F)cc(F)cc2C1` (configuration not stated) had a melting point of 250 to 252 °C.

`COc1ccc(OC)c2nccnc12`: the melting point was 145 to 150 °C.

With `Cc1ccsc1C(=O)Nc1ccc(I)cc1`, the melting point lay within 141 to 142 °C.

With `CN(CCCCNC(=NCCCOc1cccc(CN2CCCCC2)c1)NC#N)CCN(Cc1ccc(F)cc1)c1ccccn1`, the melting point was in the range of 84 to 86 °C.

`COC(=O)[C@@H]1[C@@H](O)CCN1C(=O)Nc1ccc(C#N)c(Cl)c1C` came in with a melting point of 189 to 191 °C.

The compound `CON(C)C(=O)Nc1ccc(CN2OCCC(C)(SC)C2=O)c(Cl)c1` (configuration not stated) yielded a melting point of 88 to 91 °C.

`CNc1ccc(Cl)cc1Cc1ccccc1` showed a melting point of 125 °C.

As for `O=CNC1Cc2cc(Br)cc([N+](=O)[O-])c2NC1=O` (configuration not stated), the melting point was 232 to 235 °C.

`O=C(Nc1ccccc1)C1CSc2sccc2C1=O` (configuration not stated): the melting point was in the range of 155 to 158 °C.

Compound `C=CCc1cccc2c(=O)c(C)c(C=Cc3ccccc3)oc12` showed a melting point of 126 °C.

For `CN(CCc1ccccc1)C(=O)Cn1cc(C=O)c2c(OCc3ccccc3)cccc21`, the melting point fell in the range of 120 to 122 °C.

On to `O=C(O)c1cc(Cl)c(F)c(Cl)c1F`, for which the melting point was determined as 179 °C.

The compound `CCc1ccnc(C(=O)c2[nH]c3cc(Cl)ccc3c2CC(=O)O)c1Cl` gave a melting point of 158 °C.

With `CC(C)(C)NC(=O)c1ccc(Cl)c(C(F)(F)F)c1`, the melting point turned out to be 131 °C.

`CC(c1cccnc1)C(O)(Cn1cncn1)c1ccc(F)cc1F` (configuration not stated) showed a melting point of 113 to 114 °C.

In the case of `N[C@@H](Cc1cccc(Oc2ccc(Oc3ccc(O)cc3)cc2)c1)C(=O)O`, the melting point was in the range of 67 to 71 °C.

The compound `O=C(c1c(F)cccc1F)N1COCN(c2ccc(SC(F)F)cc2F)C1=O` gave a melting point of 77 to 79 °C.

The compound `CCOC1=Cc2ccccc2N(C)c2ccc(Br)cc21` registered a melting point of 131 °C.

`CCOC(=O)CCCCCCCn1cnc(-c2ccc(O)cc2)c1-c1ccc(O)cc1`: the melting point lay in the range of 186 to 187 °C.

In turn, `N#CC(C=CC=O)=C(c1ccc(F)cc1)c1ccc(F)cc1` showed a melting point of 155 to 156 °C.

With `CC(C)n1nc2c(F)cccc2c1-c1ccc(O)cc1O`, the melting point was more than 160 °C.

With `N=C(O)c1cc(C(O)=NCCO)c(C(=O)O)cc1C(=O)O`, the melting point fell in the range of 279 to 280 °C.

On to `COc1ccc(C2Sc3cc(Cl)ccc3NC(=O)C2=O)cc1` (configuration not stated), for which the melting point lay within 168 to 169 °C.

With `Cc1cccc(CCOc2nc(N)c3ncn(C4OC(CO)C(O)C4O)c3n2)c1` (configuration not stated), the melting point was in the range of 102 to 108 °C.

Turning to `Nc1cc(Cl)nc(Cl)c1N`, the melting point lay in the range of 186 to 188 °C.

`CCNC(c1ccccc1)(c1ccccc1)c1ccccc1` returned a melting point of 75 to 77 °C.

For the compound `Cc1cccc2c1C(=O)/C(=C(\N)c1ccccc1)S2`, the melting point was in the range of 198 to 200 °C.

For `CCOC(=O)N1CCC(Nc2ccc(C(F)(F)F)c([N+](=O)[O-])c2)CC1`, the melting point was determined as 127 °C.

On to `COc1ccc(CCNC(=O)C(F)(F)F)cc1S(=O)(=O)Cl`, for which the melting point fell in the range of 96 to 98 °C.

With `NCCN1CCC(NC(=O)c2cc(Cl)c(N)c3c2OCCC3)CC1`, the melting point came out at 130 °C.

The compound `CC(C)(C)C=C[C@H](O)c1ccc(C(F)(F)F)cc1` showed a melting point of 30 to 32 °C.

In turn, `OC1CSC(Oc2cncc(-c3ccc(F)cn3)c2)C(O)C1O` (configuration not stated) yielded a melting point of 166 to 190 °C.

`COc1ccc(CNc2nc(N3CCC[C@H]3CO)ncc2C(=O)Nc2cncnc2)cc1Cl` gave a melting point of 192 to 195 °C.

As to `COc1ccc(-c2cn(-c3nc(C)c(C(=O)NCc4ccccc4)s3)nn2)cc1`, the melting point lay in the range of 168 to 171 °C.
